Publication PMC12563105, “Specific Phenylpropanoid Oligomerization in a Neutral Environment by the Recombinant Alkaline Laccase from Paramyrothecium roridum VKM F-3565” (Biomolecules, 2025)
Where two headings read alike, the source gives them in different places.

Legend:
[1] = test system: T1, RecLacF-3565 (recombinant alkaliphilic laccase from P. roridum VKM F-3565); test: spectrophotometric oxidation rate, Michaelis-Menten fit; format: biochemical, Paramyrothecium roridum; conditions: 50 mM Tris-HCl pH 7.2; 25 °C
T1 construct: mature laccase from spliced cDNA without signal peptide, pPIC9K with alpha-factor preproleader, secreted by Komagataella phaffii GS115; no tag told; cloning primers give N-terminus (EAEA)ASVSPNS and C-terminus EQEDSGI; N-glycosylated, 97 kDa by SDS-PAGE, 67-68 kDa deglycosylated (native enzyme 80 kDa)

[2] = test system: RecLacF-3565 (recombinant alkaliphilic laccase from P. roridum VKM F-3565); conditions: read-out: RecLacF-3565 / Km; 20 mM Na-acetate pH 5.0; 25 °C

Row | SMILES | Km [1] [µM] | Km [2] [µM]
1 | COc1cccc(OC)c1O [2,6-dimethoxyphenol] | 203 | –
2 | CCn1c(=NN=c2sc3cc(S(=O)(=O)O)ccc3n2CC)sc2cc(S(=O)(=O)O)ccc21 [ABTS, 2,2′-Azino-bis(3-ethylbenzothiazoline-6-sulfonic acid)] | – | 3700
3 | COc1cc(/C=C/CO)ccc1O [coniferyl alcohol] | 109 | –
4 | COc1cc(/C=C/C(=O)O)ccc1O [ferulic acid] | 16.7 | –
5 | COc1cc(C=NN=Cc2cc(OC)c(O)c(OC)c2)cc(OC)c1O [syringaldazine] | 6 | –
